# Results reported in the supplement of paper PMC10307832.
# Experiments:
# Assay in all cases: relative viability (nuclei count vs DMSO), 5 days (fraction); higher = more cells survive
# [1] = compound: C1=CC=C2C(=C1)N=C(S2)C(C#N)C3=NC(=NC=C3)NCCC4=CN=CC=C4 + COc1cc2c(Oc3ccc(NC(=O)C4(C(=O)Nc5ccc(F)cc5)CC4)cc3F)ccnc2cc1OCCCN1CCOCC1 [Foretinib] (partner 0.25 µM)
# Procedure, shortened: (§1)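 Values are medians from duplicate plates. Each reflects relative viability, defined as the nuclei count of treated wells over that of vehicle wells. Lung cancer cell lines in 1536-well plates were pin-tool dosed one day after seeding with one drug alone or with a fixed anchor-drug dose plus five library-drug doses (not always all listed) in √10 steps, then fixed, stained and imaged at 4× after 5 days.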
# NVP-TAE684 + Dasatinib = compound: COc1cc(N2CCC(N3CCN(C)CC3)CC2)ccc1Nc1ncc(Cl)c(Nc2ccccc2S(=O)(=O)C(C)C)n1 [NVP-TAE684] + Cc1nc(Nc2ncc(C(=O)Nc3c(C)cccc3Cl)s2)cc(N2CCN(CCO)CC2)n1 [Dasatinib] (partner 0.075 µM)
# Procedure, shortened: as §1
# Vandetanib + Alpelisib = compound: COc1cc2/c(=N/c3ccc(Br)cc3F)nc[nH]c2cc1OCC1CCN(C)CC1 [Vandetanib] + Cc1nc(NC(=O)N2CCC[C@H]2C(N)=O)sc1-c1ccnc(C(C)(C)C(F)(F)F)c1 [Alpelisib] (partner 2 µM)
# Procedure, shortened: as §1
# Vandetanib + Phenformin = compound: COc1cc2/c(=N/c3ccc(Br)cc3F)nc[nH]c2cc1OCC1CCN(C)CC1 [Vandetanib] + N=C(N)NC(=N)NCCc1ccccc1 [Phenformin] (partner 250 µM)
# Procedure, shortened: as §1
Cell Line,relative viability ([1]; first compound 0.005 µM),relative viability ([1]; first compound 0.05 µM),relative viability ([1]; first compound 0.1581 µM),relative viability ([1]; first compound 0.5 µM),relative viability (NVP-TAE684 + Dasatinib; first compound 0.2 µM),relative viability (NVP-TAE684 + Dasatinib; first compound 0.6325 µM),relative viability (NVP-TAE684 + Dasatinib; first compound 2 µM),relative viability (Vandetanib + Alpelisib; first compound 0.02 µM),relative viability (Vandetanib + Alpelisib; first compound 0.06325 µM),relative viability (Vandetanib + Alpelisib; first compound 0.2 µM),relative viability (Vandetanib + Alpelisib; first compound 0.6325 µM),relative viability (Vandetanib + Alpelisib; first compound 2 µM),relative viability (Vandetanib + Phenformin; first compound 0.02 µM),relative viability (Vandetanib + Phenformin; first compound 0.06325 µM),relative viability (Vandetanib + Phenformin; first compound 0.2 µM),relative viability (Vandetanib + Phenformin; first compound 0.6325 µM),relative viability (Vandetanib + Phenformin; first compound 2 µM),relative viability ([1]; first compound 0.01581 µM)
201T,1.19,1.01,1.08,0.625,0.703,0.46,0.314,1.08,0.959,0.985,0.977,0.995,0.466,0.406,0.427,0.403,0.424,–
A549,–,0.971,1.05,0.728,–,–,–,0.686,0.698,0.613,0.751,0.663,0.195,0.133,0.121,0.142,0.0686,1.03
A-427,1.22,0.946,1.22,1.32,0.789,0.703,0.554,0.951,1.01,1.11,1.06,1.1,0.297,0.303,0.274,0.253,0.22,1.21
ABC-1,1.2,0.935,1.12,1,0.584,0.423,0.237,1.01,0.787,0.95,1.12,0.827,0.248,0.205,0.256,0.275,0.266,1.01
BEN,0.658,0.684,0.847,0.858,0.37,0.287,0.28,0.976,0.897,0.928,1.04,0.867,0.266,0.278,0.279,0.292,0.262,0.557
CAL-12T,1.06,0.931,1.27,0.967,0.227,0.111,0.0731,0.993,0.956,1.44,1.26,0.73,0.536,0.539,0.446,0.411,0.242,1.11
COR-L23,0.861,0.961,1.29,0.798,0.366,0.301,0.117,0.701,0.528,0.114,0.773,0.902,0.485,0.442,0.428,0.452,0.464,1.03
COR-L 105,0.802,0.963,1.26,0.878,0.256,0.202,0.204,1.04,0.864,0.998,0.932,0.425,0.535,0.483,0.449,0.292,0.294,1.12
Calu-6,0.875,0.817,0.884,0.822,–,–,–,0.99,1.01,0.881,0.895,0.843,–,–,–,–,–,0.873
ChaGo-K-1,–,0.838,1.06,0.932,0.715,0.558,0.413,–,–,–,–,–,0.411,0.463,0.297,0.452,0.466,0.954
EBC-1,0.123,0.0991,0.112,0.0984,–,–,–,0.81,0.784,0.862,0.809,0.746,–,–,–,–,–,0.103
EKVX,0.8,0.83,0.79,0.777,0.367,0.469,0.202,0.95,0.873,0.86,0.777,0.424,0.245,0.234,0.228,0.227,0.219,0.833
EMC-BAC-2,0.946,0.994,1.03,1.03,0.291,0.292,0.199,0.737,0.742,0.472,0.712,0.717,0.51,0.506,0.339,0.485,0.463,1.01
EPLC-272H,0.588,0.673,1,0.585,0.181,0.186,0.0612,0.865,0.814,0.96,0.909,0.997,0.326,–,0.294,0.273,0.301,0.586
H3255,0.988,0.848,1.09,0.963,0.318,0.274,0.23,0.681,0.634,0.602,0.335,0.119,0.427,0.359,0.35,0.303,0.192,0.879
HARA,0.869,0.831,0.975,0.786,0.24,0.172,0.141,0.812,0.76,0.861,0.821,0.537,0.471,0.447,0.44,0.381,0.351,0.876
